Assay results from US20130004581A1, “CONTROLLING UPTAKE BY CELLS” (Ramot at Tel-Aviv University Ltd., priority 2010, published 2013).

How the values were obtained:
HaCaT cells = assay: Proton induced uptake (PIU) in HaCaT cells, FACS; format: cell-based, human; conditions: for extent of PIU of dextran-FITC compared to normal cells: 25 μM added 10 minutes prior, pH 5.2 for 10 minutes, dextran-FITC 70 kDa; for effect of actin cytoskeleton modifier on rate of PIU of dextran-FITC: latrunculin-A 1 μM, cytochalasin-B 10 μM, wortmannin 1 μM, calyculin-A 50 nM, 15 minutes before, pH 5.25 10 minutes, 70 kD dextran-FITC 5 μM
Protocol: FIG. 6 is a chart showing PIU of molecules different by size and charge, in accordance with some embodiments of the invention. Hacat cultures were exposed to solutions of pH 5.2 or pH 7.4 for 5 minutes period, in the presence of different fluorescence molecules (All at 25 μM concentration). FACS analysis results (FL1, geometrical mean±SD) for the cell cultures exposed to pH 5.2 are presented as fold induction relative to results obtained for cells exposed to pH 7.4. This can be used, in some embodiments of the invention, to assess effect of molecule size and charge on uptake.
FIGS. 7A-7B are charts showing the comparison of PIU in adherent and suspended HaCaT cells, in accordance with some embodiments of the invention. For FIG. 7A, HaCaT cells were tested either at their adherent state, or following harvest at a suspended state. […] FACS analyses (FL1) in terms of geometrical mean±SD are presented as fold induction relative to the constitutive uptake at physiological pH 7.4. n=9 in 3 independent experiments. For FIG. 7B, HaCaT Cells were cultivated at low, medium or high cell density. […] The cultures were harvested and undergone FACS analyses (FL1) in terms of geometrical mean±SD and are presented as fold induction relative to the constitutive uptake of low density cultures. Statistical significance was tested against the confluent culture, n=9 in 3 independent experiments. In the charts, * indicates a t-test p<0.05; and ** indicates a t-test p<0.01. This can be used, in some embodiments of the invention, to assess effect of cell membrane rigidity and/or tissue structure on uptake.
FIGS. 12A-12B are a chart and images which show the relative change of PIU by modifiers of actin cytoskeleton organization, in accordance with some embodiments of the invention. […].

COS 5-7 cells [1] = assay: Uptake after one minute of electric pulse train (EPT) in three-compartment device, FACS; format: cell-based, African green monkey; conditions: in the presence of both 2 mM SAA and 1 mM DHA
Protocol: Exposure of cells to low-intensity trains of unipolar rectangular voltage pulses was carried in a three-compartment exposure set-up where the anode and cathode were connected to an electric pulse generator (Grass S44 Stimulator). The exposure set-up consisted of a rectangular chamber made from polystyrene, 15 mm long, 10 mm wide, with 0.5 cm^2 area platinum electrodes positioned on the extreme sides (see FIG. 15). The chamber is divided by two porous membranes (PolyEtherSulfon, 0.8 μm pores, 200 μm depth), into three distinct and equal compartments: anode, cathode and center ones. The electric field parameters applied were monitored on line by recording the voltage and the current (by means of a wide band current probe, Pearson) on an oscilloscope. Typically, a cell suspension (1*10^6 cells/ml) is exposed to a train of electric pulses consisting of unipolar rectangular pulses with duration of 180 μs, frequency of 500 Hz for the total time of exposure of one minute.
Flow cytometry analysis was carried out by FACSort (Becton @ Dickson, San Jose, Calif.), employing a 488-nm argon laser excitation. […] Ten thousand cells were examined for each sample and data were collected in the list mode. The analysis of flow cytometry data was performed using WINMDI 2.9 software (Joe Trotter, The Scripps Research Institute). For each sample the geometrical mean was calculated without including PI stained cells. Cell intensity was determined as fold of induction relative to cells' constitutive uptake.

COS 5-7 cells [2] = assay: Intracellular oxidative stress (DCF fluorescence) after exposure to EPT, FACS; format: cell-based, African green monkey; conditions: EPT 20V/cm
From the text: FIG. 18 is a chart of intracellular oxidative stress in the presence of anti-oxidants in the extracellular and the intracellular compartments, in accordance with some embodiments of the invention. The intracellular oxidative stress measured by intracellular DCF fluorescent intensity following cell exposure to electric pulse train, analyzed by FACS (488/530 nm). Results are given as folds of geometrical mean±SD relative to the level of constitutive oxidative stress. Statistical t-test results: 2 mM SAA; p<0.05, 1 mM DHA; p<0.01.
Harvested cells were incubated with H2DCF-DA (20 μM for 90 minutes 5% CO2 at 37°). Following the loading process the cells were washed once with HBSS before exposure to EPT. H2DCF-DA is a non-fluorescent form of fluorescein, passively permeating into the cell where it is cleaved by cytosolic esterase to H2DCF. It gains its fluorescent properties when oxidized into DCF. DCF intensity was analyzed by FACS using the 530/30 nm channel.
The intracellular OS level was monitored by H2DCF, a non-fluorescent probe that is oxidized by radical hydroxyls into the fluorescent DCF form. Following the cells pre-loading with H2DCF, OS levels, as monitored by intracellular DCF fluorescence intensity, are elevated only in those cells suspended and exposed to EPT in the anode compartment (20V/cm, 200 mA/cm^2). […]

COS 5-7 cells [3] = assay: Uptake after one minute of chemically induced low pH (HCl added to HBSS suspension), FACS; format: cell-based, African green monkey; conditions: 50 mM
Protocol: The following tables show a connection between pH and current. […] The values in the tables are shown as folds relative to the uptake in cells unexposed to any of the treatments. […] The results are expected to be substantially independent of cell type and molecule used, except for a cell-specific change and a molecule specific change.
Cells (COS 5-7) were harvested, re-suspended in DMEM (1 mg/ml glucose, 5% FCS), and incubated (37°, 5% CO2) as designated by the experiment. For uploading the cells with either H2DCF-DA (20 μM) or Bis-DHA (1 mM) incubation lasted 90 minutes. When no pre-treatments were required, the cells were kept in the DMEM for 30 minutes. Following incubation, the cells were centrifuged at 400g for 1 min, the solution aspirated, and cells re-suspended in HBSS exposure media.
Exposure of cells to pulse acidification was through the addition of HCl to the HBSS suspension for 60 seconds, terminated by the addition of a three fold larger volume of DMEM-H.
Cell suspensions were centrifuged (400g for one minute), their solutions aspirated and they were re-suspended with 0.5 ml DMEM-H supplemented with 10u/ml dextranase (Sigma-Aldrich) for 10 minutes at RT. Cells were centrifuged again; their solution aspirated and they were re-suspended with 0.2 ml DMEM-H. PI (25 μg/ml) as a label for permeabilized cells and tryphan blue (0.01% w/v) as a fluorescence quenching agent for extracellular FITC (36) were added to each sample shortly before analysis
Flow cytometry analysis was carried out by FACSort (Becton @ Dickson, San Jose, Calif.), employing a 488-nm argon laser excitation. The green fluorescence of FITC was measured via 530/30 nm filter, the red fluorescence of PI was detected via a 585/42 nm filter. […] Ten thousand cells were examined for each sample and data were collected in the list mode. The analysis of flow cytometry data was performed using WINMDI 2.9 software (Joe Trotter, The Scripps Research Institute). For each sample the geometrical mean was calculated without including PI stained cells. Cell intensity was determined as fold of induction relative to cells' constitutive uptake.
After one minute incubation, cell suspensions were immediately diluted with 3 fold larger volume of cold buffered DMEM to restore pH to a normal pH of 7.5.

[4] = 2 mM added to medium prior to EPT (20V/cm, 200 mA/cm^2)
Protocol: In order to determine the EPT induced oxidative stress in the extracellular media, TMB was employed, a colorless solution that transforms into blue when oxidized. TMB was added to the media before exposure to EPT. […] Light absorbance was measured using Tecan GENios plate reader at 450 nm. […] In order to moot this possibility, OS was examined in the three-compartment device, monitored by the color conversion of TMB.

Compound: N#CC(C#N)=NNc1cccc(Cl)c1 [CCCP]
- extent of PIU of dextran-FITC compared to normal cells (HaCaT cells): higher

Compound: O=C1OC2C(O)COC23OC24OCC(O)C2OC(=O)C4(O)OC13O (stereo not drawn) [DHA, Bis-Dehydroascorbic acid]
- effect on EPT induced uptake of dextran-FITC (COS 5-7 cells [1]): only a minor decrease
- effect on EPT induced increase of DCF fluorescent intensity (COS 5-7 cells [2]; cells pre-loaded (1 mM, 90 minutes), 200 mA/cm^2): sufficient to abolish

Compound: [Cl-].[Na+] [NaCl]
- change in uptake when HCl is replaced by the same concentration of salt (osmolarity control) (COS 5-7 cells [3]): no change in uptake was observed

Compound: O=C(CCc1ccc(O)cc1)c1c(O)cc(O)cc1O [Phloretin]
- extent of PIU of dextran-FITC compared to normal cells (HaCaT cells): higher

Compound: O=C1O[C@H]([C@@H](O)CO)C(O)=C1O.[Na] [SAA, Sodium ascorbic acid]
- effect on EPT induced uptake of dextran-FITC (COS 5-7 cells [1]): only a minor decrease
- decline of intracellular OS (DCF fluorescence) (COS 5-7 cells [2]; 2 mM in external medium, 200 mA/cm^2, anode compartment): 66%
- effect on TMB oxidation during electric exposure [4]: prevented its oxidation

Compound: COC[C@@H]([C@H](O)[C@H](O)C(=O)NCC[C@H](C)c1nc(/C=C/C[C@@H]2O[C@]3(C[C@@H](O)[C@@H]2C)O[C@H]([C@H](C[C@H](O)[C@H](C)[C@H](O)[C@H](C)/C=C(C)/C(C)=C/C=C/C(C)=C\C#N)OC)[C@H](OP(=O)(O)O)C3(C)C)co1)N(C)C [calyculin-A]
- effect of actin cytoskeleton modifier on rate of PIU of dextran-FITC (HaCaT cells): relatively minute impact on PIU increase

Compound: C=C1[C@@H](C)[C@H]2[C@H](Cc3ccccc3)NC(=O)[C@]23OC(=O)/C=C/[C@H](O)CCC[C@@H](C)C/C=C/[C@H]3[C@@H]1O [cytochalasin-B]
- effect of actin cytoskeleton modifier on rate of PIU of dextran-FITC (HaCaT cells): doubled

Compound: C/C1=C/C(=O)O[C@@H]2C[C@@H](CC[C@H](C)/C=C\C=C\CC1)O[C@@](O)([C@@H]1CSC(=O)N1)C2 [latrunculin-A]
- effect of actin cytoskeleton modifier on rate of PIU of dextran-FITC (HaCaT cells): only small PIU enhancement

Compound: lucifer yellow
- extent of PIU compared with fluorescein and dextran (HaCaT cells; pH 5.2 vs pH 7.4, 5 minutes, 25 μM): lesser extent of PIU
